From patent US20060264497A1, “Diindolylmethane-based compositions and methods of use thereof for promoting oral mucosal and bone health” (priority 2005, published 2006)
Marks after values point to notes of the source that are not given here.

Columns and labels:
[1] = Case report: DIM treatment of a subject with rheumatoid arthritis and gingivitis; format: in vivo, human; conditions: oral, subject with rheumatoid arthritis
Experimental: (§1) A person with a diagnosis of rheumatoid arthritis was referred for Diinolylmethane (DIM) treatment due to intolerance of oral Plaquenil®. […] They had diffuse small joint pain and elevated Rheumatoid Factor and Antinuclear Antigen serum titers. […] On probing, a total of 12 bleeding sites were documented. They began taking DIM (BioResponse-DIM 150, BioResponse, Boulder, Colo.) taking 50 mg of DIM twice daily.
as §1, with “daily. […] Subsequently they discontinued use of DIM and noted gradual return of painful swollen joints in their hands over 2 months.” for “daily.”

[2] = system: osteoclasts in metaphyseal bone; test: Bone histomorphometry: osteoclast number after one year feeding of DIM or I3C; format: in vivo, rats; conditions: 1 year; for Osteoclast Cell Number in Metaphyseal Bone: DIM 20 mg/kg/day (BioResponse-DIM), I3C 50 mg/kg/day in diet
Experimental: A one year study was conducted including evaluation of the impact of chronic feeding of DIM and I3C versus control diet in rats. The study used a dose of 20 mg/kg/day DIM, formulated for increased absorption (BioResponse-DIM, BioResponse, Boulder, Colo. [Example 1]), and 50 mg/kg/day Indole-3-Carbinol (I3C) (Sigma Chemical, St. Louis, Mo.). Bone histomorphometry was performed comparing metaphyseal bone in male and female animals using established techiques (Huffer W E, Ruegg P, Zhu J M, Lepoff R B., Semiautomated methods for cancellous bone histomorphometry using a general-purpose video image analysis system. J Microsc. 1994 January; 173 (Pt 1):53-66). Counts of osteoclast number, averaged for male and female groups are summarized in the following chart: […]

[3] = Dissolution of DIM containing particles (release rate profile); format: physicochemical; conditions: pH 6.8 phosphate buffer, 0.5% Tween 80, 37° C., 50 rpm
Experimental: Testing of Dissolution of DIM Containing Particles: In order to determine the release rate profiles of DIM from matrix, particle formulations, a test using pH 6.8 phosphate buffer system containing 0.5% Tween 80 was utilized. The procedure included dissolving an amount of spray dried particles containing a known amount of DIM in a standard dissolution apparatus with standard simulated saliva solution. For the following testing, 900 ml of stock pH 6.8 buffer solution was placed into a round bottom beaker in the dissolution test apparatus. To the solution, 5 g of Tween 80 (Sorbitan Monooleate) was added and mixed while bringing to a temperature of 37° C. To this, 600 mg of a test sample with known DIM content was added to the solution and stirred at 50 rpm. At timed intervals 3.0 ml aliquots of solution was removed and filtered through 0.22 um filter. The absorption of the sample was read at 283 nm on an […], blanking vs. pH 6.8 buffer containing 0.5% Tween 80. The percent released DIM compared to the 100% complete, theoretical level was calculated.

rat bone osteoclasts = conditions: Gao and Yamaguchi 1999; cited from earlier work
[4] = cited from earlier work
[5] = system: mouse osteoclast-like multinucleated cells (OCLs); test: Pit formation assay on dentine slices; conditions: 0.5-50 micromolar, 24 h and 48 h
Description: Osteoblasts will be obtained from the calvariae of newborn ddY mice and bone marrow cells will be obtained from the tibiae of male mice and be cocultured in aMEM (Life Technologies, Grand Island, N.Y.) containing 10% FBS, 1α,25-dihydroxyvitamin D3 (10^−8 M) (Wako Pure Chemical, Osaka, Japan) and PGE2 (10^−6 M) (Sigma) in 100-mm-diameter dishes coated with collagen gels (Nitta Gelatin, Osaka). OCLs will be formed within 6 days in culture and will be removed from the dishes by treating with 0.2% collagenase (Wako). The purity of OCLs in this fraction (crude OCL preparation) will be about 5%. To further purify the OCLs, the crude OCL preparation will be replated on culture dishes. After further culture for 8 h, osteoblasts will be removed with PBS containing 0.001% pronase E (Calbiochem, La Jolla, Calif.) and 0.02% EDTA.
OCLs preparations (15,000 cells/0.1 ml/well) will be seeded on dentine slices (4-mm diameter) which had been placed in 96-well plates. […] Pit formation by OCls will be determined after culture for 24 h and 48 h. […] The numbers of pits on the slices will be counted. To quantitate pit-forming activity of OCLs, the areas of resorption lacunae will also be measured with an image analysis system (LA-525; PIAS Co., Tokyo). The results will be expressed as the percentage of resorbed area with respect to the whole surface area of a dentine slice.

CCN(CCO)CCCC(C)Nc1ccnc2cc(Cl)ccc12 (stereo not shown) [Plaquenil]
Tolerance (adverse effect) [1]: unacceptable dizziness

OCc1c[nH]c2ccccc12 [I3C, Indole-3-carbinol, reference compound]
Osteoclast Cell Number in Metaphyseal Bone ([2]; female rats): 18.3 | Osteoclast Cell Number in Metaphyseal Bone ([2]; male rats): 14.3*

c1ccc2c(Cc3c[nH]c4ccccc34)c[nH]c2c1 [Microcrystalline DIM, 3,3′-diindolylmethane]
Percent DIM Released from Particle ([3]; 0 minutes): 0% | Percent DIM Released from Particle ([3]; 15 minutes): 55.1% | Percent DIM Released from Particle ([3]; 30 minutes): 73.6% | Percent DIM Released from Particle ([3]; 45 minutes): 78.8% | Percent DIM Released from Particle ([3]; 60 minutes): 83.5%

O=c1c(-c2ccc(O)cc2)coc2cc(O)cc(O)c12 [Genistein, 4′,5,7-trihydroxyisoflavone]
Potency of inhibiting the function of osteoclasts relative to daidzein (rat bone osteoclasts): about 10 times | Bone mineral density ([4]; 52 mg/day, year long clinical trial): failed to show any measurable improvement | Serum and urinary indicators of ongoing bone loss ([4]; 90 mg/day, clinical trial): failed to reduce

c1ccc2c(Cc3c[nH]c4ccccc34)c[nH]c2c1 [DIM, 3,3′-diindolylmethane]
Osteoclast Cell Number in Metaphyseal Bone ([2]; female rats): 14.3 | Osteoclast Cell Number in Metaphyseal Bone ([2]; male rats): 9.3* | Change in osteoclast number versus I3C treated and control animals ([2]; rats): reduction in osteoclast number | Pit formation by OCLs (osteoclast function and survival) [5]: inhibition of pit formation

CC(C)Oc1ccc2c(=O)c(-c3ccccc3)coc2c1 [Ipriflavone, 3-phenyl-7-propan-2-yloxy-chromen-4-one]
Measures of bone health ([4]; 600 mg/day, 3 years of treatment, controlled trial): no significant improvement
